Patent publication US9821072B2, “Activated neurotensin molecules and the uses thereof” (priority 2014, dated 2017)

Key:
[1] = test system: FVB/N mice with KA-induced status epilepticus; experiment: Kainic acid-induced status epilepticus model (body temperature, seizures, neurodegeneration, neuroinflammation, mossy fiber sprouting); assay type: in vivo, mouse; conditions: 30 min after SE onset; first of two values, presumably 2 mg/kg eq. NT
Swiss (CD-1) mice = experiment: Hypothermic response upon four daily i.v. administrations in Swiss (CD-1) mice; assay type: in vivo, mouse; conditions: 4 mg/kg eq. NT daily i.v.
Procedure: In order to determine the hypothermic responsiveness of mice upon repeated administrations of activated NT of the invention, Swiss (CD-1) mice were challenged to four daily intravenous (bolus) administrations of compound XIV at 4 mg/kg eq. NT. Rectal body temperature was monitored each day during 3 hours post-injection.

[2] = target: T1, rat neurotensin receptor type 1 (rNTR-1) (Rattus norvegicus, UniProt P20789); experiment: Competition binding assay with [3H]-neurotensin on rat NTR-1 membranes (HEK293 cells); conditions: read-out: NTR-1 binding affinity Ki, Rat NTR-1
T1 construct: host or cells: HEK293 cells (membrane homogenates)

[3] = test system: FVB/N mice with KA-induced status epilepticus; experiment: Kainic acid-induced status epilepticus model (body temperature, seizures, neurodegeneration, neuroinflammation, mossy fiber sprouting); assay type: in vivo, mouse
Source text: In the present case, excitotoxicity was induced by subcutaneous (s.c.) injection of kainic acid (KA), a pro-convulsant agent known to induce a status epilepticus (SE) with excitotoxicity, neuroinflammation, and severe neuronal damage in the hippocampus that can be observed 3 to 7 days after KA administration, and with aberrant axonal sprouting of the dentate gyrus mossy fibers that can be observed at 7-8 weeks after KA administration. We tested the effect of compound XIV on i) epileptic activity (persistence of recurrent seizures), ii) neurodegeneration, neuroinflammation and the resulting brain tissue damage and iii) aberrant axonal sprouting of the dentate gyrus mossy fibers.
FVB/N adult male mice were injected with a single dose of KA (40-45 mg/kg s.c.) to generate mice with spontaneous recurrent seizures as a hallmark of SE. A negative control group of mice were administered saline 0.9% instead of KA and no further treatment (“SHAM”, n=5). Thirty minutes after the onset of SE, mice received either an intravenous (tail vein) bolus injection of compound XIV at the dose of 4 mg/kg eq. NT (treatment group “SE+HT”, n=5) or saline 0.9% (group “SE”, n=5), or a high dose of diazepam (DZP) at 15 mg/kg), a potent anti-convulsive and anti-epileptic drug (positive control group “SE+DZP”). Body temperature was monitored before KA injection and then every 15 min during 6 hours thereafter, using a rectal probe. During this period, mice were assessed for the occurrence and severity of motor seizures. One week later, animals were sacrificed for histological assessment of neuronal cell death on coronal sections, the hippocampal formation being the main structure in the brain showing tissue damage in this model of excitotoxicity. Another group of animals with the same treatments was sacrificed 8 weeks for histological assessment of aberrant axonal sprouting of the dentate gyrus mossy fibers.
Administration of KA (40-45 mg/kg; s.c.) caused characteristic sequential behavioral changes. Immediately after being injected, all animals developed immobility (stage 1). Within 30 minutes after KA injection, automatisms with head nodding, forelimb clonus and circling behavior (stages 2-3) were observed. Then most animals progressed to intermittent (stage 4) followed by continuous (stage 5) rearing with forelimb clonus and falling behavior. […] Only animals attaining at least Racine stage 5 seizures were included in the study. The SE occurred around 2 hours after KA injection, was characterized by stage 5-6 seizures and often associated with hyperthermia (FIG. 13A). Compound XIV administered 30 min after SE onset (SE30) invariably led to transient hypothermia (FIG. 13A), which persisted at least 2 hrs. Mean decreases in body temperature (BT) of −2.5° C. and −3.6° C. were respectively recorded for SE30+ compound XIV animals as compared to SE animals (F=52.34; ***P<0.001). […] SE30+ compound XIV animals presented an average of stage 2 seizures or fewer during the rest of experiment. A subset of animals was administered i.p. a high dose of diazepam (DZP). […] Thus, administration of compound XIV at the dose of 4 mg/kg eq. […] This effect correlated with a −3 to −6° C. decrease in body temperature during ˜2.5 hours.
Using the anti-NeuN antibody and Fluoro-jade C that respectively label a neuronspecific nuclear protein and neuronal death, we observed a broad loss of CA1 and CA3 pyramidal cells as well as some dentate hilar neurons in the hippocampus of control SE animals (FIG. 14A, panel B), as compared to SHAM animals (FIG. 14A, panel A).
SE-induced gliosis involved microglia and astroglial cell types. We used GFAP and Iba1 immunolabeling to estimate the effect of compound XIV on neuroinflammation. In SHAM animals, a basal labeling for GFAP and Iba1 was detected in the HF (FIG. 14A, panel D). In SE animals, a very strong activation of glial cells occurred in all hippocampal layers (FIG. 14, panels E, H). […]

mice = experiment: Writhing test (acetic acid, acute visceral pain) in mice; assay type: in vivo, mouse; conditions: 30 min before acetic acid i.p.
Procedure: In order to evaluate the antinociceptive potential of activated NT drugs, compound XIV was tested in an experimental pain model in mice. The writhing test was used as a model of acute visceral pain to assess the effect of compound XIV after intravenous administration. Given that the time to maximal decrease in body temperature in mice receiving compound XIV was around 45 min post-injection, we assumed similar pharmacodynamic kinetics in this pain model. Mice first received intravenous (bolus) injection of compound XIV at increasing dose levels, followed 30 min thereafter by intraperitoneal injection of acetic acid 0.7% (10 mL/kg). In control mice, intraperitoneal injection of acetic acid produces characteristic and quantifiable abdominal stretches (elongation of the body and extension of forelimbs) as early as 2-3 minutes following injection and reaching a peak between 5 and 15 min following injection. This time window was therefore used to evaluate the number of abdominal stretches (writhes counted over 10 min observation) in mice administered with either saline or compound XIV at 0.5, 1 or 5 mg/kg eq. NT.

[4] = test system: NMRI mice with yeast-induced hyperthermia; experiment: Antipyretic effect in yeast-induced hyperthermia in NMRI mice; assay type: in vivo, mouse
Procedure: In addition to eliciting a strong hypothermic effect when injected intravenously in naïve mice, we assessed the antipyretic effect of activated NT drugs of the invention in mice with yeast-induced hyperthermia. Briefly, rectal temperature of male NMRI mice was first measured 14 hours before the test using a rectal probe (Baseline 1, two independent measurements at a minimum of 5 min interval). Mice were then injected subcutaneously with either a yeast suspension (512 mg/kg), to induce a hyperthermic response, or hydroxypropylmethylcellulose (HPMC) in saline 0.9%. Fourteen hours later, rectal temperature of the mice was measured again (Baseline 2, two independent measurements at a minimum of 5 min interval) in order to assess the effect of yeast or HPMC injection on baseline temperature.

[5] = administered 30 min after SE onset

T1 sequence (P20789 whole entry): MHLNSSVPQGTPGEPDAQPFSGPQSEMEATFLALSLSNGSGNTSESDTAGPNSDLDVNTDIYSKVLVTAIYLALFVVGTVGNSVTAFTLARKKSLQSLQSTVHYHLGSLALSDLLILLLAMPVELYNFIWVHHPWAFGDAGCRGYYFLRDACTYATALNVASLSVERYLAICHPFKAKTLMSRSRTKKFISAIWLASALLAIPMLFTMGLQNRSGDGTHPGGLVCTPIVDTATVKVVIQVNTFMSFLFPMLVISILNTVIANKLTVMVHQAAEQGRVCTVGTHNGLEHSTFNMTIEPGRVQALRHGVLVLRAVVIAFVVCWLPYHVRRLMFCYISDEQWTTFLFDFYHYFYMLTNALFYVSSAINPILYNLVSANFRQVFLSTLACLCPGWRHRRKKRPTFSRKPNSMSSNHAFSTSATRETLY

CCC(=O)N[C@@H]1CSSC[C@@H](C(=O)NCCOCCOCCOCCOCCOCCOCCC(=O)N[C@@H](CCCNC(=N)N)C(=O)N[C@@H](CCCNC(=N)N)C(=O)N2CCC[C@H]2C(=O)N[C@@H](Cc2ccc(O)cc2)C(=O)N[C@H](C(=O)N[C@@H](CC(C)C)C(=O)O)[C@@H](C)CC)NC(=O)CN(C)C(=O)[C@H](CCCNC(=N)N)NC(=O)[C@H](CC(C)C)NC(=O)[C@H](CCCNC(=N)N)NC(=O)[C@@H]2CCCCN2C(=O)[C@H](CCSC)NC1=O [Compound XIV, Pr-cMPipRLRSarC-PEG6-RRPYIL-OH] was tested, and the “mean decrease in body temperature compared to SE animals (first value)” value [1] was −2.5 °C, the “maximal decrease in body temperature, day 1” value (Swiss (CD-1) mice; day 1, 45 min post-injection) was −5.5 °C and the “mean decrease in body temperature, day 2 to day 4” value (Swiss (CD-1) mice; day 2 to day 4, 30 min post-injection) was −3 °C. For the same compound, the Ki [2] was 1.06 ± 0.47 nM, the “decrease in body temperature” value ([3]; 4 mg/kg eq. NT i.v., during ~2.5 hours) was −3 to −6 °C and the “mean decrease in body temperature compared to SE animals (second value)” value ([3]; 30 min after SE onset, second of two values, presumably 4 mg/kg eq. NT) was −3.6 °C. The “glial inflammatory response in the hippocampus (GFAP, Iba1) compared with SE animals” value [3, 5] was “significantly decreased”, the “persistence of transient hypothermia” value [3, 5] was “at least 2 hrs” and the “seizure intensity compared with SE group” value [3, 5] was “significant decrease of seizures”. The “seizure stage (Racine) during the rest of the experiment” value [3, 5] was at most 2 stage, the “number of mossy fiber terminals innervating the IML (ZnT3) compared with SE animals” value ([3]; administered 30 min after SE onset, 8 weeks after SE) was “considerably reduced” and the “neurodegeneration in the hippocampus (NeuN, Fluoro-jade C) compared with SE animals” value ([3]; administered 30 min after SE onset, one week later) was “significantly decreased”. The “antinociceptive effect on writhe count” value (mice; 0.5 mg/kg eq. NT i.v.) was “no effect”, the “reduction of the writhe count” value (mice; 1 mg/kg eq. NT i.v.) was 50% and the “reduction of the writhe count” value (mice; 5 mg/kg eq. NT i.v.) was 64%. The “further decrease of body temperature” value ([4]; 6 mg/kg eq. NT i.v.) was 4.7 °C and the “maximal antipyretic effect compared to Baseline 2 or saline” value ([4]; as of 2 mg/kg eq. NT i.v., 15 min post-injection) was −2.2 °C.
